Measurements reported in US20230131535A1, “ARYLMETHYLENE AROMATIC COMPOUNDS AS Kv1.3 POTASSIUM SHAKER CHANNEL BLOCKERS” (D. E. Shaw Research, LLC, priority 2019, published 2023).
Like-named read-outs stand apart in the source and are kept apart here. Values belong to the compound of their own block, whether it stands above or below them.

What was measured:
[1] = target: T1, hERG channel (Homo sapiens, UniProt Q12809); assay: hERG electrophysiology, automated whole-cell patch clamp (Patchliner); type: cell-based; details: CHO-K1 cells stably expressing hERG, whole cell current, tail current protocol, read-out: hERG_IC50
T1 construct: expressed in transfected cells
Method: Example 68. Evaluation of hERG Activities
This assay is used to evaluate the disclosed compounds' inhibition activities against the hERG channel.
CHO-K1 cells stably expressing hERG were grown in Ham's F-12 Medium with Glutamine containing 10% heat-inactivated FBS, 1% Penicillin/Streptomycin, Hygromycin (100 μg/ml) and G418 (100 μg/ml). Cells were grown in culture flasks at 37° C. in a 5% CO2-humidified incubator.
(§1) The cells were bathed in an extracellular solution containing 140 mM NaCl, 4 mM KCl, 2 mM CaCl2), 1 mM MgCl2, 5 mM Glucose, 10 mM HEPES; pH adjusted to 7.4 with NaOH; 295-305 mOsm. The internal solution contained 50 mM KCl, 10 mM NaCl, 60 mM KF, 20 mM EGTA, 10 mM HEPES; pH adjusted to 7.2 with KOH; 285 mOsm. All compounds were dissolved in DMSO at 30 mM. Compound stock solutions were freshly diluted with external solution to concentrations of 30 nM, 100 nM, 300 nM, 1 μM, 3 μM, 10 μM, 30 μM and 100 μM. The highest content of DMSO (0.3%) was present in 100 μM.
The voltage protocol (see Table 5) was designed to simulate voltage changes during a cardiac action potential with a 300 ms depolarization to +20 mV (analogous to the plateau phase of the cardiac action potential), a repolarization for 300 ms to −50 mV (inducing a tail current) and a final step to the holding potential of −80 mV. The pulse frequency was 0.3 Hz. Control (compound-free) and compound pulse trains for each compound concentration applied contained 70 pulses.
Whole cell current recordings and compound application were enabled by means of an automated patch clamp platform Patchliner (Nanion). EPC 10 patch clamp amplifier (HEKA) along with Patchmaster software (HEKA Elektronik Dr. Schulze GmbH) was used for data acquisition. Data were sampled at 10 kHz without filtering. Increasing compound concentrations were applied consecutively to the same cell without washouts in between.
(§2) AUC and PEAK values were obtained with Patchmaster (HEKA Elektronik Dr. Schulze GmbH). To determine IC50 the last single pulse in the pulse train corresponding to a given compound concentration was used. Obtained AUC and PEAK values in the presence of compound were normalized to control values in the absence of compound. Using Origin (OridinLab), IC50 was derived from data fit to Hill equation: Icompound/Icontrol=(100−A)/(1+([compound]/IC50)nH)+A, where IC50 is the concentration at which current inhibition is half-maximal, [compound] is the applied compound concentration, A is the fraction of current that is not blocked and nH is the Hill coefficient.

[2] = target: T2, Kv1.3 potassium channel (Homo sapiens, UniProt P22001); assay: Kv1.3 potassium channel blocker activity, automated whole-cell patch clamp (Patchliner); type: cell-based; details: CHO-K1 cells stably expressing Kv1.3, whole cell current, pulses -90 mV to +40 mV, read-out: Kv1.3_IC50
T2 construct: expressed in transfected cells
Method: Example 67. Evaluation of Kv1.3 Potassium Channel Blocker Activities
The assay described below is used to evaluate the disclosed compound's activities as Kv1.3 potassium channel blockers.
CHO-K1 cells stably expressing Kv1.3 were grown in DMEM containing 10% heat-inactivated FBS, 1 mM Sodium Pyruvate, 2 mM L-Glutamine and G418 (500 μg/ml). Cells were grown in culture flasks at 37° C. in a 5% CO2-humidified incubator.
as §1
The currents were evoked by applying 100 ms depolarizing pulses from −90 mV (holding potential) to +40 mV were applied with 0.1 Hz frequency. Control (compound-free) and compound pulse trains for each compound concentration applied contained 20 pulses. 10 second breaks were used between pulse trains (see Table 4 below).
Whole cell current recordings and compound application were enabled by means of an automated patch clamp platform Patchliner (Nanion Technologies GmbH). EPC 10 patch clamp amplifier (HIEKA Elektronik Dr. Schulze GmbH) along with Patchmaster software (HIEKA Elektronik Dr. Schulze GmbH) was used for data acquisition. Data were sampled at 10 kHz without filtering. Passive leak currents were subtracted online using a P/4 procedure (HEKA Elektronik Dr. Schulze GmbH). Increasing compound concentrations were applied consecutively to the same cell without washouts in between. Total compound incubation time before the next pulse train was not longer than 10 seconds. Peak current inhibition was observed during compound equilibration.
as §2, with “AUC and peak values were” for “AUC and PEAK values were”, “To determine IC50, the last” for “To determine IC50 the last”, “AUC and peak values in” for “AUC and PEAK values in”, “where IC50 value is the” for “where IC50 is the”

T2 sequence (P22001 whole entry): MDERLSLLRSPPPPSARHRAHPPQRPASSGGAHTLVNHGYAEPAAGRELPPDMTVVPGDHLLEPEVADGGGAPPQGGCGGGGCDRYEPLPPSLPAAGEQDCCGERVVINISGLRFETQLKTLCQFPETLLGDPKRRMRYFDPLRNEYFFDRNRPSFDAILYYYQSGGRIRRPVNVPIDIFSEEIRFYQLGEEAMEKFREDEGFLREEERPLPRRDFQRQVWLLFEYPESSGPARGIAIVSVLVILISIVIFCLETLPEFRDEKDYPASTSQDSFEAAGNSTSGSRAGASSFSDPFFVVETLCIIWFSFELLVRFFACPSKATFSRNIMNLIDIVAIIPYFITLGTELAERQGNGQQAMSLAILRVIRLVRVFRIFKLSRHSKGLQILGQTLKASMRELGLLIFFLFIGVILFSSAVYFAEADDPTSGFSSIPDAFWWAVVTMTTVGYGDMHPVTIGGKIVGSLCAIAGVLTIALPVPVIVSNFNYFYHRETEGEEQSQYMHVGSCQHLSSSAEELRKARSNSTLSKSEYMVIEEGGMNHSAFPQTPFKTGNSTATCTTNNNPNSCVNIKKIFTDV
T1 sequence (Q12809 whole entry): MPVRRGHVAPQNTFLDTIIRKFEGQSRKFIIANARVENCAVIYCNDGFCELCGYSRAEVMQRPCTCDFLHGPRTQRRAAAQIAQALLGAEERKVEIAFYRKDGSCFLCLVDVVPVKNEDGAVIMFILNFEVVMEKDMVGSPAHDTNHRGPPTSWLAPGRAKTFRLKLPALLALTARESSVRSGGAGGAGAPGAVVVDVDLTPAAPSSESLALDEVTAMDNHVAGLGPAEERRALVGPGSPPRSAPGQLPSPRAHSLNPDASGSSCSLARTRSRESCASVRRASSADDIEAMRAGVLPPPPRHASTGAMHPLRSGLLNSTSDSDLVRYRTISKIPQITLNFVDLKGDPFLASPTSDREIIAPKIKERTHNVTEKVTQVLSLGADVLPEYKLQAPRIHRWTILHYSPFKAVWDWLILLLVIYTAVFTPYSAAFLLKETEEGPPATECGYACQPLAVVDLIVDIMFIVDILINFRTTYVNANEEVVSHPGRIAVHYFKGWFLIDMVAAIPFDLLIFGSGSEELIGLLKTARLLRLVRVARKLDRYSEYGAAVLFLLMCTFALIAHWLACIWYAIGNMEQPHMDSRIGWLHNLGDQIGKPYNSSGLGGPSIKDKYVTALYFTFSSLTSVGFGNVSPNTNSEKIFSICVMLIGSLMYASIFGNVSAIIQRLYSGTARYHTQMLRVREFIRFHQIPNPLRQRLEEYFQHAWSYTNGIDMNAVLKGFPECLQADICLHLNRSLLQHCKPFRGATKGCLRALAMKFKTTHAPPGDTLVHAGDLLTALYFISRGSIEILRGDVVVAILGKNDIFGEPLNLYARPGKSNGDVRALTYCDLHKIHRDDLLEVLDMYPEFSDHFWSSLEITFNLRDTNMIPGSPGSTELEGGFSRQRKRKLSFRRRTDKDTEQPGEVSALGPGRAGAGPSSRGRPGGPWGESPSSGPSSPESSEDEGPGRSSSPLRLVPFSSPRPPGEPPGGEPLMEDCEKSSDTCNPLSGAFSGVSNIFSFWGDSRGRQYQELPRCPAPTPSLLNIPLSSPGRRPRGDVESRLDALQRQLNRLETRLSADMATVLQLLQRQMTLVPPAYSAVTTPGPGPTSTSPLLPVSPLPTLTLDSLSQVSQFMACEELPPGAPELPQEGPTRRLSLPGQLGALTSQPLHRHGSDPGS

- IC50 ([2]; Table 6): < 10 µM
Structure (SMILES): Oc1cc(Cl)c(Cl)cc1Cc1ccncc1 [Compound 1, 2-[(pyridin-4-yl)methyl]-4,5-dichlorophenol]
- IC50 ([1]; Table 6): > 30 µM

- IC50 ([2]; Table 6): < 1 µM
Structure (SMILES): CN1CC(C(=O)NC(c2ccncc2)c2c(O)ccc(Cl)c2Cl)C1 (centres unmarked) [Compound 73, N-[(2,3-dichloro-6-hydroxyphenyl)(pyridin-4-yl)methyl]-1-methylazetidine-3-carboxamide]
- IC50 ([1]; Table 6): > 30 µM

- IC50 ([2]; Table 6): < 10 µM
Structure (SMILES): NC(c1ccncc1)c1cc(Cl)c(Cl)cc1O (centres unmarked) [Compound 6, 2-[amino(pyridin-4-yl)methyl]-4,5-dichlorophenol]
- IC50 ([1]; Table 6): > 30 µM

- IC50 ([2]; Table 6): < 1 µM
Structure (SMILES): Nc1cc(C(O)c2c(O)ccc(Cl)c2Cl)ccn1 (centres unmarked) [Compound 36, 2-[(2-aminopyridin-4-yl)(hydroxy)methyl]-3,4-dichlorophenol]
- IC50 ([1]; Table 6): > 30 µM

- IC50 ([2]; Table 6): < 1 µM
Structure (SMILES): Nc1cc(C(O)c2c(O)ccc(Cl)c2Cl)ccn1 (single isomer, unassigned) [Compound 45, 2-[(2-aminopyridin-4-yl)(hydroxy)methyl]-3,4-dichlorophenol]
- IC50 ([1]; Table 6): > 30 µM

- IC50 ([2]; Table 6): < 1 µM
Structure (SMILES): NC(=O)c1ccc(C(O)c2c(O)ccc(Cl)c2Cl)cc1 (centres unmarked) [Compound 64, 4-[(2,3-dichloro-6-hydroxyphenyl)(hydroxy)methyl]benzamide]
- IC50 ([1]; Table 6): > 30 µM

- IC50 ([2]; Table 6): < 1 µM
Structure (SMILES): NCc1cc(C(O)c2c(O)ccc(Cl)c2Cl)ccn1 (single isomer, unassigned) [Compound 53, 2-((2-(aminomethyl)pyridin-4-yl)(hydroxy)methyl)-3,4-dichlorophenol]
- IC50 ([1]; Table 6): > 30 µM

- IC50 ([2]; Table 6): < 1 µM
Structure (SMILES): Cc1cnccc1C(O)c1c(O)ccc(Cl)c1Cl (centres unmarked) [Compound 39, 3,4-dichloro-2-[hydroxy(3-methylpyridin-4-yl)methyl]phenol]
- IC50 ([1]; Table 6): > 30 µM

- IC50 ([2]; Table 6): < 1 µM
Structure (SMILES): NC(c1ccc2c(c1)CNC2)c1cc(Cl)c(Cl)cc1O (centres unmarked) [Compound 21, 2-[amino(2,3-dihydro-1H-isoindol-5-yl)methyl]-4,5-dichlorophenol]
- IC50 ([1]; Table 6): < 30 µM

- IC50 ([2]; Table 7): < 1 µM
Structure (SMILES): Cc1cc(O)c([C@H](N)CNC(=O)C2CNC2)cc1Cl [Compound 94, N-[(2S)-2-amino-2-(5-chloro-2-hydroxy-4-methylphenyl)ethyl]azetidine-3-carboxamide]
- IC50 ([1]; Table 7): > 30 µM

- IC50 ([2]; Table 6): < 1 µM
Structure (SMILES): NCc1cc(C(O)c2c(O)ccc(Cl)c2Cl)ccn1 (centres unmarked) [Compound 28, 2-[[2-(aminomethyl)pyridin-4-yl](hydroxy)methyl]-3,4-dichlorophenol]
- IC50 ([1]; Table 6): > 30 µM

- IC50 ([2]; Table 6): < 10 µM
Structure (SMILES): Nc1ccc(Cc2cc(Cl)c(Cl)cc2O)cn1 [Compound 8, 2-[(6-aminopyridin-3-yl)methyl]-4,5-dichlorophenol]
- IC50 ([1]; Table 6): < 30 µM

- IC50 ([2]; Table 6): < 1 µM
Structure (SMILES): O=C(NC(c1ccncc1)c1c(O)ccc(Cl)c1Cl)C1CNC1 (single isomer, unassigned) [Compound 50, N-[(2,3-dichloro-6-hydroxyphenyl)(pyridin-4-yl)methyl]azetidine-3-carboxamide]
- IC50 ([1]; Table 6): > 30 µM

- IC50 ([2]; Table 6): < 1 µM
Structure (SMILES): Cc1cnccc1C(NC(=O)C1CNC1)c1c(O)ccc(Cl)c1Cl (centres unmarked) [Compound 9, N-[(2,3-dichloro-6-hydroxyphenyl)(3-methylpyridin-4-yl)methyl]azetidine-3-carboxamide]
- IC50 ([1]; Table 6): > 30 µM

- IC50 ([2]; Table 6): < 1 µM
Structure (SMILES): Nc1ccc(C(O)c2c(O)ccc(Cl)c2Cl)cn1 (centres unmarked) [Compound 40, 2-[(6-aminopyridin-3-yl)(hydroxy)methyl]-3,4-dichlorophenol]
- IC50 ([1]; Table 6): < 30 µM

The next lines start with the compound.

Structure (SMILES): C[C@H](NC(=O)C1CNC1)c1c(O)ccc(Cl)c1Cl [Compound 76, N-[(1S)-1-(2,3-dichloro-6-hydroxyphenyl)ethyl]azetidine-3-carboxamide]
- IC50 ([1]; Table 7): > 30 µM
- IC50 ([2]; Table 7): < 1 µM

Structure (SMILES): CC(=O)NC(c1ccncc1)c1c(O)ccc(Cl)c1Cl (single isomer, unassigned) [Compound 41, N-((2,3-dichloro-6-hydroxyphenyl)(pyridin-4-yl)methyl)acetamide]
- IC50 ([1]; Table 6): > 30 µM
- IC50 ([2]; Table 6): < 1 µM

Structure (SMILES): Oc1ccc(Cl)c(Cl)c1C(O)c1cccnc1 (centres unmarked) [Compound 31, 3,4-dichloro-2-[hydroxy(pyridin-3-yl)methyl]phenol]
- IC50 ([1]; Table 6): > 30 µM
- IC50 ([2]; Table 6): < 1 µM

Structure (SMILES): C[C@H](NC(=O)C1CN(CCO)C1)c1c(O)ccc(Cl)c1Cl [Compound 89, N-[(1S)1-(2,3-dichloro-6-hydroxyphenyl)ethyl]-1-(2-hydroxyethyl) azetidine-3-carboxamide]
- IC50 ([1]; Table 7): > 30 µM
- IC50 ([2]; Table 7): < 1 µM

Structure (SMILES): O=C(N[C@H](c1ccncc1)c1c(O)ccc(Cl)c1Cl)[C@@H]1CCCN1 (single isomer, unassigned) [Compound 68]
- IC50 ([1]; Table 6): < 30 µM
- IC50 ([2]; Table 6): < 1 µM

Structure (SMILES): CC(NC(=O)C1CNC1)c1c(O)ccc(Br)c1Cl (stereo in doubt) [Compound 91, N-[(1R)-1-3-bromo-2-chloro-6-hydroxyphenyl) ethyl]azetidine-3-carboxamide]
- IC50 ([1]; Table 7): > 30 µM
- IC50 ([2]; Table 7): < 1 µM

Structure (SMILES): CC(=O)NC(c1ccncc1)c1c(O)ccc(Cl)c1Cl (centres unmarked) [Compound 20, N-[(2,3-dichloro-6-hydroxyphenyl)(pyridin-4-yl)methyl]acetamide]
- IC50 ([1]; Table 6): > 30 µM
- IC50 ([2]; Table 6): < 1 µM

Structure (SMILES): Oc1ccc(Cl)c(Cl)c1C(O)c1ccncc1 (single isomer, unassigned) [Compound 34, 3,4-dichloro-2-(hydroxy(pyridin-4-yl)methyl)phenol]
- IC50 ([1]; Table 6): > 30 µM
- IC50 ([2]; Table 6): < 30 µM

Structure (SMILES): Oc1ccc(Cl)c(Cl)c1C(O)c1ccncc1 (single isomer, unassigned) [Compound 37, 3,4-dichloro-2-(hydroxy(pyridin-4-yl)methyl)phenol]
- IC50 ([1]; Table 6): > 30 µM
- IC50 ([2]; Table 6): < 1 µM

Structure (SMILES): C[C@H](NC(=O)C1CNC1)c1c(O)ccc(Cl)c1Br [Compound 98, N-[(1S)-1-(2-bromo-3-chloro-6-hydroxyphenyl)ethyl]azetidine-3-carboxamide]
- IC50 ([1]; Table 7): > 30 µM
- IC50 ([2]; Table 7): < 1 µM
